Results as given in ChEMBL document CHEMBL1131489, “Dihydropyrancarboxamides related to zanamivir: a new series of inhibitors of influenza virus sialidases. 2. Crystallographic and molecular modeling study of complexes of 4-amino-4H-pyran-6-carboxamides and sialidase from influenza virus types A and B” (J Med Chem, 1998).

Molecular target: Neuraminidase (Influenza A virus (A/Puerto Rico/8/1934(H1N1)), UniProt P03468)
Sequence (P03468 whole entry): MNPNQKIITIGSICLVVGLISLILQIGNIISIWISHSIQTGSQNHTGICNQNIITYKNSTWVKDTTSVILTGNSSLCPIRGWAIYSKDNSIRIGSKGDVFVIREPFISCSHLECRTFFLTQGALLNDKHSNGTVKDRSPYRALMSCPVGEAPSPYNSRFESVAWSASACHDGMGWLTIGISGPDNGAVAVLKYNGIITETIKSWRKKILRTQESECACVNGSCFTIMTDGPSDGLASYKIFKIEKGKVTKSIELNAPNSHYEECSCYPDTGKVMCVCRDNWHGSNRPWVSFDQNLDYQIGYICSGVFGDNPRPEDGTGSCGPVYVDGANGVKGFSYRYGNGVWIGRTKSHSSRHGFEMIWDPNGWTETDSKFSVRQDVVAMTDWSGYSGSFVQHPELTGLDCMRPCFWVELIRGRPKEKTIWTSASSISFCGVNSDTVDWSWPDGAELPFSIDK

`CC(=O)N[C@H]1[C@H]([C@H](O)[C@H](O)CO)O[C@](O)(C(=O)O)C[C@@H]1O` showed an IC50 of 1000 µM.
